Test results reported in patent US20190209548A1, “LINKED DIARYL COMPOUNDS WITH ANTICANCER PROPERTIES AND METHODS OF USING THE SAME” (University of Maryland, College Park, priority 2014, published 2019).

How the values were obtained:
NBM = experiment: WST-1 IC50 determination, normal bone marrow; type: cell-based, human; conditions: normal bone marrow, 72 hours, WST-1
Experimental: Cell lines and culturing. The following human cell lines were purchased from ATCC (ATCC, Manassas, Va.): prostate cancer cells (PC-3), triple negative breast cancer cells (MDA-MB-231), ovarian cancer cells (OVCAR-3), normal bone marrow (NBM) and normal fibroblast cells (MCR5A). MDA-MB-231 cells were grown at 37° C. with 5% CO2 atmosphere with DMEM (Life technologies, Carlsbad, Calif.) supplemented with heat-inactivated 10% (V/V) fetal bovine serum. OVCAR-3 and PC-3 cells were grown at 37° C. with 5% CO2 atmosphere with RPMI (Life technologies, Carlsbad, Calif.) supplemented with heat-inactivated 10% (V/V) fetal bovine serum. Cell lines were grown and maintained according to ATCC recommendations.
IC50 determination. Cell lines were seeded into 96-well plates the afternoon prior to treatment. Cell seeding number was determined by growing cells in log phase growth during drug treatment. Approximately 18 hours later, compounds were semi-serially diluted in dimethyl sulfoxide (DMSO) and then growth medium, and added to cells. Plates were incubated for 72 hours prior to addition of WST-1 (Promega, Madison Wis.). Plates were read after 4 additional hours of incubation at 37° C. using a Bio-Tek Synergy HT plate reader (Bio-Tek, Winooski, Vt.). Data was analyzed, graphed and IC50s generated using GraphPad Prism Software (Graphpad, La Jolla, Calif.).
IC50 determination: For the determination of IC50 for the azolamide class, the same protocol as described previously was followed.

7bp HP•AT = experiment: ITC titration with 7 bp hairpin containing A2T2; type: binding
Experimental: (§1) Isothermal titration calorimetry. ITC experiments were performed using a VP-ITC calorimeter (GE-Healthcare). A typical ITC experiment involved as many as addition of 28 (10 μL) injections of as high as 1 mM ligand solutions into ˜1.5 mL of a dilute DNA solution (10 μM). Corrected titration curves were achieved by subtracting the blank titration data from the ITC-data for the ligand-DNA titrations. Corrected ITC titrations were fit with a nonlinear regression algorithm again using the CHASM ITC data analysis program developed in our laboratory.
(§2) DNA stock solutions were prepared by reconstituting the lyophilized oligonucleotide into 20 mM Tris buffer with a salt concentration of 100 mM KCl and a pH of 7.2. Approximately 2 mL of the oligonucleotide was dialyzed (1000 Mw cutoff membrane) against three changes of buffer solution (1 L, 24 h each) at 4° C. The concentrations of stock DNA solutions were verified using UV-Vis. G-Quadruplex DNAs were annealed by quickly heating to sample to 100° C., holding at 100° C. for ten minutes then slowly cooling to 5° C. over three hours period. Molar extinction coefficient of the DNAs were determined using a nearest-neighbor method for single stranded DNA. The extinction coefficients at 260 nm for the WT 27-mer bcl-2, WT 24-mer c-myc, WT 22-mer human telomere hTel sequences are 267,200 M^−1cm^−1, 248,100 M^−1cm^−1, and 228,500 M^−1cm^−1 respectively. The extinction coefficient at 260 nm for the 7 base pair hairpin with A2T2 (7 bp HP⋅AT) and the 7 base pair hairpin without A2T2 (7 bp HP) are 165,200 M^−1cm^−1 and 159,200 M^−1cm^−1 respectively. Cell culture grade water purchased from Corning was used for all experiments.

22mer hTel Na^+ = experiment: ITC titration with hTel G-quadruplex, Na+ form; type: binding, human; conditions: Na+ form of hTel22
Experimental: as §1
[…] Approximately 2 mL of the oligonucleotide was dialyzed (1000 Mw cutoff membrane) against three changes of buffer solution (1 L, 24 h each) at 4° C. The concentrations of stock DNA solutions were verified using UV-Vis. G-Quadruplex DNAs were annealed by quickly heating to sample to 100° C., holding at 100° C. for ten minutes then slowly cooling to 5° C. over three hours period. Molar extinction coefficient of the DNAs were determined using a nearest-neighbor method for single stranded DNA. The extinction coefficients at 260 nm for the WT 27-mer bcl-2, WT 24-mer c-myc, WT 22-mer human telomere hTel sequences are 267,200 M^−1cm^−1, 248,100 M^−1cm^−1, and 228,500 M^−1cm^−1 respectively. […]

27mer bcl-2 = experiment: ITC titration with bcl-2 G-quadruplex; type: binding
Experimental: as §1, §2

hTel22 = experiment: ESI mass spectrometry of hTel22 with excess ligand; type: binding, human; conditions: free DNA present even in excess ligand
Experimental: Electrospray Ionization Mass Spectrometry. ESI-MS experiments were carried out on a Bruker MicrOTOFQ mass spectrometer. Data acquisition was set to operate in negative ion mode. All experiments were performed in 50 mM ammonium acetate buffer containing 20% HPLC grade methanol and adjusted with 1 N KOH solution to reach pH of 7.0. The WT hTel 22-mer G-quadruplex sample was prepared at a concentration of approximately 10 μM in the ammonium acetate buffer and was exhaustedly dialyzed. Stock solutions of DMZ and Triazene-1 were prepared in the final dialysate buffer at concentration as high as 300 μM. The ESI-MS samples were prepared by mixing the DNA and ligand stock solutions to yield a mixture containing excess of each ligand per equivalence of DNA. The MS capillary voltage was set to +3500 V, dry N2 gas flow was adjusted to 0.5 L/min at 110° C., and the G-quadruplex/ligand samples were directly infused into the MS by using a kD Scientific syringe pump set to a flow rate of 200 μL/hour. Data processing was performed by using Bruker Daltonics Data Analysis program.

[1] = ITC, 20 mM Tris, 100 mM KCl, pH 7.2

N=C(N)c1ccc(/N=N/Nc2ccccc2C#Cc2ccc(F)cc2)cc1 [DMZ13]
IC50 ± SD, NBM (NBM): NE (NE means not effective. Cell viability was the same or greater than 75% of the DMSO control at 20 μM compound concentration.)

N=C(N)c1ccc(/N=N/Nc2ccc(C(=N)N)cc2)cc1 [DMZ, Diminazene aceturate, reference compound]
K2 (7bp HP•AT; 20 mM Tris, 100 mM KCl, pH 7.2): 45000 M⁻¹ | ITC interaction heat (22mer hTel Na^+): calorimetrically silent | K1 (27mer bcl-2; [1]): 8.8e+08 M⁻¹ | K2 (27mer bcl-2; [1]): 1.9e+06 M⁻¹ | K3 (27mer bcl-2; [1]): 64000 M⁻¹ | Kd (27mer bcl-2; from ITC data, as low as, read-out: dissociation constant): ~1 nM

N=C(N)c1ccc(N=NNc2cccc(C#Cc3ccc(F)cc3)c2)cc1 [DMZ9]
IC50 (NBM; read-out: IC50 ± SD, NBM): 5600 nM

N=C(N)c1ccc(NN=Nc2ccccc2)cc1 [DMZ1]
binding affinity in words (hTel22): low binding affinity | K1 (7bp HP•AT; 20 mM Tris, 100 mM KCl, pH 7.2): 29000 M⁻¹ | reduction in binding affinity relative to DMZ (7bp HP•AT; compare Tables 2 and 3): ~30 times | ITC interaction heat (22mer hTel Na^+): calorimetrically silent | K1 (27mer bcl-2; [1]): 3500 M⁻¹
